Assay results as given in patent publication US12607622B2, “Method for diagnosing and monitoring inflammatory disease progression” (MCMASTER UNIVERSITY, priority 2013, dated 2026).

Test system: BDNF
Assay: BDNF transcript expression in the uterus of ovariectomized mice by Real Time PCR
Type: in vivo
Conditions: estradiol primed, Real Time PCR relative expression, FIG. 8
Protocol: BDNF transcripts were measured in the murine uterus of ovariectomized mice by Real Time PCR and relative expression quantified in mice receiving saline (Control (n=4)), estradiol primed then estradiol (E2 (n=6)), estradiol primed then progesterone (P4 (n=6)), estradiol primed then estradiol+progesterone (E2+P4 (n=6)), or estradiol primed then saline (Saline (n=4). [table]

CC(=O)[C@H]1CC[C@H]2[C@@H]3CCC4=CC(=O)CC[C@]4(C)[C@H]3CC[C@]12C [P4, progesterone]
BDNF expression in the uterus: significantly increased
